The target of test [1] is T1, Calpain-2 catalytic subunit (Sus scrofa, UniProt P43367).
T1 sequence (P43367 whole entry): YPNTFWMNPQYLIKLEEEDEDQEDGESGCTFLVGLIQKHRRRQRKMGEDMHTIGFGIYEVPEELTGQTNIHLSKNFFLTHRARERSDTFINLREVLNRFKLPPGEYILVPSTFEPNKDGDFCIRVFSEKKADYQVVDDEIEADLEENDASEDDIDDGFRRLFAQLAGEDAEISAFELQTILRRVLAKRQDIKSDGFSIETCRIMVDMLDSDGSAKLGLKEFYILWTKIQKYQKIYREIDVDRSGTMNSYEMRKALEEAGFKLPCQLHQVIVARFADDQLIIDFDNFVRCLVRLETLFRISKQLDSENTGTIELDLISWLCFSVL
Description: pig calpain II inhibitor potency, dose response, biochemical, fluorogenic peptide substrate (AID 1420). It counts as functional.

For test [2], the target named is T2, Fatty acid synthase (Homo sapiens, UniProt P49327). The test is described as follows: FAS thioesterase domain inhibitors, dose response, biochemical, endpoint fluorescence intensity, uHTS hits (AID 624327).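 Further: fluorescence from hydrolysis of an O-methyl fluorescein acyl ester substrate by the enzyme.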 It counts as functional.
T2 sequence (P49327 whole entry, the tested form may be a part): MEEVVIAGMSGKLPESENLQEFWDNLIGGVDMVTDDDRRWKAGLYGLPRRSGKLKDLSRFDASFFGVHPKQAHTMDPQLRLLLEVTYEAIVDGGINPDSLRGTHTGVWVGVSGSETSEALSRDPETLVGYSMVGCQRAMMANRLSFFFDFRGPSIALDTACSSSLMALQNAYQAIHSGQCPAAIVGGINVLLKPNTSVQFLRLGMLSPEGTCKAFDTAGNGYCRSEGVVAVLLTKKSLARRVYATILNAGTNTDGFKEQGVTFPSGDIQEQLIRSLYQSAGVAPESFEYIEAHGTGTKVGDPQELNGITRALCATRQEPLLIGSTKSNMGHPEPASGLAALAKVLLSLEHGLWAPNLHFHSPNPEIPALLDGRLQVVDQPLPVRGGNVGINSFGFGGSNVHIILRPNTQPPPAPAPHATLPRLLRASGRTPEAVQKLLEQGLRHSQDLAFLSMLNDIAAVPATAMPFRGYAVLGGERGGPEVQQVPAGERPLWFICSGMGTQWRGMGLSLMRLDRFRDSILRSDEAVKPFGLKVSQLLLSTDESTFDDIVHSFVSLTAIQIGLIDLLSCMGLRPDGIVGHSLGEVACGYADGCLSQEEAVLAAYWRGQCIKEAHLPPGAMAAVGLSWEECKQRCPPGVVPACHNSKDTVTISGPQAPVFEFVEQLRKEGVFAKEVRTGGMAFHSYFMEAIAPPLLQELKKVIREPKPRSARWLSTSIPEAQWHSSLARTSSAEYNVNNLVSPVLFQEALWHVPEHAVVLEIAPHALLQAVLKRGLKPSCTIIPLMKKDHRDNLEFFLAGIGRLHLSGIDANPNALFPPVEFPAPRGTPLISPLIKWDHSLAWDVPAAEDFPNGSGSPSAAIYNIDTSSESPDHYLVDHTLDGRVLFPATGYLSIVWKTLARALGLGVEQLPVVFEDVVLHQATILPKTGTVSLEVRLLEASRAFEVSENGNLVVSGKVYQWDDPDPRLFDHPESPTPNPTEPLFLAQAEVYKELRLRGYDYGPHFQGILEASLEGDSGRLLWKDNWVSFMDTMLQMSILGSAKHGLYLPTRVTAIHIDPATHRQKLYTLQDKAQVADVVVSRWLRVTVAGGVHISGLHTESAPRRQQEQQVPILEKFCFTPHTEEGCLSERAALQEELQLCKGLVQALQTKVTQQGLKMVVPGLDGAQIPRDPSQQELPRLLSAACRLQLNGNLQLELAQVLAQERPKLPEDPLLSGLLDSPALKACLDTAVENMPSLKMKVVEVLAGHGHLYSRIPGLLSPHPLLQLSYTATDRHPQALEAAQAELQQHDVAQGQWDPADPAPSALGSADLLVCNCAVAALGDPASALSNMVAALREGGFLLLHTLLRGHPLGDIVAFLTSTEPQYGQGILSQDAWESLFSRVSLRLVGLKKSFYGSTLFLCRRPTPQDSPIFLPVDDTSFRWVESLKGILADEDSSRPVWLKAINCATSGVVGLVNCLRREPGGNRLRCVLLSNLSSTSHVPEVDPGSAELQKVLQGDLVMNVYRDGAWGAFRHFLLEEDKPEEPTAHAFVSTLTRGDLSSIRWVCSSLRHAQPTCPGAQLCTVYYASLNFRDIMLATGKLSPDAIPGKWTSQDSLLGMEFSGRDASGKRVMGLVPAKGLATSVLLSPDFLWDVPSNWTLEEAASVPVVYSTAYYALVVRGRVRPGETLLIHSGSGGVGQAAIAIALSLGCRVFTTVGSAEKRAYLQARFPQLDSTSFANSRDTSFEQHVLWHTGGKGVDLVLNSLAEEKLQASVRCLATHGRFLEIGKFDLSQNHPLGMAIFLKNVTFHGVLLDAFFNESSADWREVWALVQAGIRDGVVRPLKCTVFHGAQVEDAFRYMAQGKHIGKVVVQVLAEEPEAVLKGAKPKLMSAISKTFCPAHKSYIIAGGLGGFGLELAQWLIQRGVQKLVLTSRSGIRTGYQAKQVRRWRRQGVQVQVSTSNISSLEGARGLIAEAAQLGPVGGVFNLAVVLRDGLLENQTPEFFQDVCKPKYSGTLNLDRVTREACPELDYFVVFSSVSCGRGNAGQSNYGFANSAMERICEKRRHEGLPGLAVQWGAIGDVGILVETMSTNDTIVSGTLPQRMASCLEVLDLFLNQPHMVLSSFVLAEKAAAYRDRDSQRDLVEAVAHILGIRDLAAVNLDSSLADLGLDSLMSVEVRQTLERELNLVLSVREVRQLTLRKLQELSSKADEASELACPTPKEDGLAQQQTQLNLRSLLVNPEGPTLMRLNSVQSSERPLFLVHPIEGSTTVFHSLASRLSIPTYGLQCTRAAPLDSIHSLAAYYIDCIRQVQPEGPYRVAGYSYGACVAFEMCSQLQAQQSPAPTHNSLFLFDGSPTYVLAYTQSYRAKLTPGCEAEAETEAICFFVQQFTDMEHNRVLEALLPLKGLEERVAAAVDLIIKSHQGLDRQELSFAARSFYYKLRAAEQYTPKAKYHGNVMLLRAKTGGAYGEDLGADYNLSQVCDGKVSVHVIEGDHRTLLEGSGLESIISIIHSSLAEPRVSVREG
In test [3] the target is T2, Fatty acid synthase. Description: FAS thioesterase domain inhibitors, dose response, biochemical, kinetic fluorescence intensity (AID 624326).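 Further: rate of fluorescence rise from hydrolysis of a fluorogenic O-methyl fluorescein ester substrate.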 It counts as functional.
The target of a further test is Large T antigen (Simian virus 40, UniProt P03070). It counts as functional, Betapolyomavirus macacae.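 Further: Confirmatory-stage PubChem screen for compounds that inhibit SV40 T antigen.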
Large T antigen, sequence (P03070 whole entry): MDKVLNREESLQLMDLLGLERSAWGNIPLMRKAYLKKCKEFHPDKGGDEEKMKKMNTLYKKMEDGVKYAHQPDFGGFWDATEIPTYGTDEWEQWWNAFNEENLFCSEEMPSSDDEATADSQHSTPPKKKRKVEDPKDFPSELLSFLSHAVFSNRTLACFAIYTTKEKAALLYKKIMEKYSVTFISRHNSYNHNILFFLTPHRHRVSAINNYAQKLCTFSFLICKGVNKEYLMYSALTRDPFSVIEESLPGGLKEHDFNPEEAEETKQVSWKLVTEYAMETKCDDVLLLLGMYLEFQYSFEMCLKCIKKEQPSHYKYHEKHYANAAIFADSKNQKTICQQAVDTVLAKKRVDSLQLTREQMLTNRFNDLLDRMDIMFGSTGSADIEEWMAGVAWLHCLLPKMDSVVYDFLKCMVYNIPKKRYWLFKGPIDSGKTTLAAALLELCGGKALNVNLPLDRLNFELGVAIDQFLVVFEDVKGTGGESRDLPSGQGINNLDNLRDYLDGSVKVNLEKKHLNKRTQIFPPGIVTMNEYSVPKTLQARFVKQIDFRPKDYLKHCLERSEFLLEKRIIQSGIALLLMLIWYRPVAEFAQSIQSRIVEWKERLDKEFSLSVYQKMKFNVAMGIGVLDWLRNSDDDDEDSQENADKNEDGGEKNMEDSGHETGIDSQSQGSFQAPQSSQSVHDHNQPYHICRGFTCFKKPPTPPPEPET
For test [4], the target named is T3, Rac GTPase-activating protein 1 (Homo sapiens, UniProt Q9H0H5).
T3 sequence (Q9H0H5 whole entry): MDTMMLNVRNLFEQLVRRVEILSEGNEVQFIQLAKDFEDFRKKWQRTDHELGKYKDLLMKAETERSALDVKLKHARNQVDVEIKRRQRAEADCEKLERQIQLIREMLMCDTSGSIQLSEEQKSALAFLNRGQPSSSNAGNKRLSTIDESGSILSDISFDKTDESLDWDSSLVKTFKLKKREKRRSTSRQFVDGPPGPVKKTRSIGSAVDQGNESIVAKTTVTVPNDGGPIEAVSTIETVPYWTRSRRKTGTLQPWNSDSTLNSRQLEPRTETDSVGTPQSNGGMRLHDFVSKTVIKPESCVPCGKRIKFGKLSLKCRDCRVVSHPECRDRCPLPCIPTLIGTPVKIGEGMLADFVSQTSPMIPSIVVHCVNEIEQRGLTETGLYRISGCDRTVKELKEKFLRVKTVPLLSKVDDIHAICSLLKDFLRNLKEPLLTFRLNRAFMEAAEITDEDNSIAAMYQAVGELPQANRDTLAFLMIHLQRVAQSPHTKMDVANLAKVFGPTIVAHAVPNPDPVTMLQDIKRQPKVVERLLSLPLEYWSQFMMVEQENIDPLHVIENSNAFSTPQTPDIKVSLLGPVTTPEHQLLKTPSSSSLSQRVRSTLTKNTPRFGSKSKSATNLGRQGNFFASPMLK
The test is described as follows: MgcRacGAP GTPase-activating activity inhibitors, confirmation, biochemical, ADP Hunter fluorescence, primary and confirmatory (AID 624330). It counts as functional.

Test [5] has as its target FAD-linked sulfhydryl oxidase ALR (Homo sapiens, UniProt P55789). The test is described as follows: inhibitors of human ALR sulfhydryl oxidase, dose response, biochemical, H2O2 detection, luminescence, cherry-pick (AID 493248).
A short description of test [6]: Luminescence Cell-Based Dose Response HTS to Identify Activators of Luciferase Translation or Activity in H4 […] Cells. [Related pubchem assays: 1829 (Project Summary), 1814 (Primary HTS)]. It counts as functional.
Test [7] addresses T4, Corticotropin-releasing factor receptor 2/Corticotropin-releasing factor-binding protein (Homo sapiens, UniProt P24387+Q13324).
T4 sequence (Q13324 whole entry): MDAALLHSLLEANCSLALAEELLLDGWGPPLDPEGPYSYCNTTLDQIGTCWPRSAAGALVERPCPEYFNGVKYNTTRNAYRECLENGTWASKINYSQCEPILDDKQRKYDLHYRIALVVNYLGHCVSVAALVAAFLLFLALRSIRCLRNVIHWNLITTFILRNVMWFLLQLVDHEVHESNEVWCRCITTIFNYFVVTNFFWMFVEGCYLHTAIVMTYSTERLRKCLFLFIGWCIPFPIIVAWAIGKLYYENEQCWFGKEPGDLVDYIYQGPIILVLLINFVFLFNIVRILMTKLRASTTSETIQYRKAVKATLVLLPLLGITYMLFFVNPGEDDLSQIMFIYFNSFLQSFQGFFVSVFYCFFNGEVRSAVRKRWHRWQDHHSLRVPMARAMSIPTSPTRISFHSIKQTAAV
T4 sequence (P24387 whole entry): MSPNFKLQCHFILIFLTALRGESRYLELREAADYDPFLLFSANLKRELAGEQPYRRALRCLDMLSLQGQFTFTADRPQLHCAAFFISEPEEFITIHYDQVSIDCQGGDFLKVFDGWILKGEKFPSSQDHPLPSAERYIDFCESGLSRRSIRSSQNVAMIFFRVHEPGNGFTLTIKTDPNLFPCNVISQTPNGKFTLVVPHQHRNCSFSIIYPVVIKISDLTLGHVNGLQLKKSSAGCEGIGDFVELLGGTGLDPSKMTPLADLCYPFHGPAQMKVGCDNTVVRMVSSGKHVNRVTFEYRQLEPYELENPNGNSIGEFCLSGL
Description: activators of CRF receptor 2 with binding protein – uHTS hits, confirmation (AID 602473). The note with it: read-out: EC50_Mean. It counts as functional.

In test [8] the target is T4, Corticotropin-releasing factor receptor 2/Corticotropin-releasing factor-binding protein. Description: Dose Response confirmation of uHTS hits for small molecule antagonists of the CRF-binding protein and CRF-R2 receptor complex. It counts as functional. The note with it: read-out: IC50_Mean.
A short description of test [9]: control 3'UTR Renilla luciferase suppression, dose response, counter-screen for Shn3 inhibitor project, cell-based, Clone20-Shn3RL, cherry-picked (AID 624133). It counts as functional.
Test [10] can be described thus: cytotoxicity toward NIH3T3 fibroblasts, dose response, counter-screen, cell-based, ATP luminescence, mouse fibroblasts (AID 2010).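 Further: cells exposed to compound for about 90 hours before reading.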 It counts as functional.
Test [11] can be described thus: Shn3 3'UTR reporter inhibitors, dose response, cell-based, Clone20 osteoblasts, firefly luciferase, cherry-picked (AID 624132).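 Further: firefly luciferase luminescence from reporter carrying the Shn3 3'UTR in osteoblasts.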 It counts as functional.
Test [12] in a line: inhibitors of intracellular T. cruzi replication, confirmation, NIH3T3 host cells, beta-gal luminescence (AID 2044).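 Further: intracellular parasites grown in NIH/3T3 mouse fibroblasts as host cells; luminescent beta-galactosidase reporter signal from transgenic T. cruzi replicating inside host cells; inhibitors lower the luminescence signal.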 It counts as functional, cell-based.

The text below walks through data of ChEMBL document CHEMBL1201862, “PubChem BioAssay data set” (2004).

Calls of active or inactive are those of the source. A value given as a limit tells only on which side of the number the result lay.

FAD-linked sulfhydryl oxidase ALR, sequence (P55789 whole entry): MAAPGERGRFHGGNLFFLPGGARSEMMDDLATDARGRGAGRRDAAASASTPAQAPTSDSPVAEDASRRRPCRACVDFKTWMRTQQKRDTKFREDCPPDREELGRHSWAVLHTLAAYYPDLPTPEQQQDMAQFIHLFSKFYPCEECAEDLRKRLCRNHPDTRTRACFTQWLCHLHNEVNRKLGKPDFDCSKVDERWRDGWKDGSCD

Consider `O=C(CN1C(=O)/C(=C/c2cccc(Br)c2)SC1=S)NC1=NCCS1`, for which, in test [1], the IC50 is > 50 µM (not active).

On to `CNC(=S)N/N=C/C1=CCC2CC1C2(C)C` (stereo not drawn), for which the IC50 in test [1] is on record as > 50 µM (not active).

As for `COc1ccc2cc3cc(C(=O)N4CCCC(C)C4)oc3nc2c1` (stereo not drawn), the IC50 on Fatty acid synthase [2] is 6.22 µM (active); on Fatty acid synthase [3], 5.48 µM (active).

On to `CN1C=CC=C/C1=C(\C#N)c1nc2ccccc2[nH]1`, for which the IC50 was 7.7 µM (active) at Large T antigen and 46.4 µM (active) in test [4].

`CCN(CC)c1ccc(/C=N/O)cc1`: the IC50 at Large T antigen is 6.52 µM (active); in test [4] it was 20.2 µM (active).

For `CN(C)/C=N/C1=NN(c2cccc(C(F)(F)F)c2)CC1`, the results for the IC50 (on Large T antigen; in [4]) were 13 µM (active) and 38.3 µM (active), respectively. The AC50 in [5] was 1.5 µM (active).

Consider `O=C(Oc1ccc(Cl)c2cccnc12)C12CC3CC(CC(C3)C1)C2`, for which, in test [1], the IC50 was 11.9 µM (not active).

Regarding `O=C(NCCc1ccccc1)c1ccc(Cl)nc1`, the EC50 in test [6] was 0.155 µM (inconclusive).

Consider `C[C@@H](NC(=O)c1[nH]cnc1C(=O)N[C@@H](CCCCNC(=O)OC(C)(C)C)C(=O)OC(C)(C)C)c1ccccc1`, for which, in [1], the IC50 is listed as 8.84 µM (not active).

As for `O=C(O)C1CC(=O)N(CCOc2ccccc2)C1` (stereo not drawn), the EC50 in [7] is > 53 µM (inactive). In addition, the IC50 in test [8] is > 47.1 µM (inactive).

With `O=C(COC(=O)c1cccnc1O)NCCc1ccc(Cl)cc1Cl`, the EC50 in [6] was 0.367 µM (active).

Consider `COc1ccc(N2CCC(CN=C(S)Nc3c(C)cc(C)cc3C)C2)cc1` (stereo not drawn), for which, at Large T antigen, the IC50 is 19.1 µM (active).

As to `O=C(c1ccc(F)cc1Cl)N(Cc1ccco1)C1CCS(=O)(=O)C1` (stereo not drawn), the EC50 in test [7] is > 53 µM (inactive). For the same compound, in test [8], the IC50 is > 47.1 µM (inactive).

Turning to `O=C(CSc1ccccn1)C12CC3CC(CC(C3)C1)C2`, in test [1], the IC50 is reported as > 50 µM (not active).

With `O=C(NC(=S)NCC1CCCO1)C(c1ccccc1)c1ccccc1` (stereo not drawn), the EC50 in test [7] was > 53 µM (inactive). In addition, the IC50 in test [8] is > 47.1 µM (inactive).

In the case of `O=C(CCC1CCCCC1)Nc1ccc(C(=O)c2ccncc2)cc1`, the IC50 in test [1] was 7.01 µM (not active).

Consider `CCc1ccc(OCc2nnc(S)n2Cc2ccccc2)cc1`, for which the IC50 in [1] was 4.01 µM (not active).

In the case of `COc1cc(/C=N/NC(=O)c2c(-c3ccccc3)noc2C)ccc1O`, the values for the IC50 (at Large T antigen; in test [4]) were 15 µM (active) and 50.2 µM (active), respectively.

On to `COCCNC(=S)N1CCc2cc(OC)c(OC)cc2C1COc1ccc(C(C)C)cc1` (stereo not drawn), for which, in test [7], the EC50 is > 53 µM (inactive). The IC50 in [8] is > 47.1 µM (inactive).

With `COc1ccc(C(=O)/C=C(\C)Nc2ccc(NC(C)=O)cc2)cc1`, the IC50 on Large T antigen is 53.3 µM (active).

In the case of `NC1=NC(=O)S/C1=C\c1ccc(O)cc1`, the IC50 is 4.59 µM (active) on Large T antigen, 15.7 µM (active) in test [4] and > 47.1 µM (inactive) in [8]. For the same compound, the EC50 in test [7] is > 53 µM (inactive).

For `CCN(CC)C(=O)C1CCCN(c2ccc([N+](=O)[O-])cc2/C=N/NC(=O)c2ccccc2)C1` (stereo not drawn), the IC50 is 0.645 µM (active) on Fatty acid synthase [2] and 0.846 µM (active) on Fatty acid synthase [3].

For the compound `O=c1cc(-c2ccccc2)ss1`, in test [7], the EC50 is > 53 µM (inactive). For the same compound, the IC50 in [8] was > 47.1 µM (inactive).

`CCN(CC)c1ccc(NC(=O)C2CC(=O)N(Cc3ccccc3)C2)cc1` (stereo not drawn): on Large T antigen, the IC50 was 14.5 µM (active).

For `COc1ccc(NC(=O)Nc2nnc(C(C)(C)C)s2)cc1`, the EC50 in [7] was > 53 µM (inactive). For the same compound, the IC50 in test [8] was > 47.1 µM (inactive).

For `O=C(c1cc2cc([N+](=O)[O-])ccc2s1)N1CCCCC1`, the IC50 in test [1] is on record as 43.1 µM (not active).

Turning to `O=C(CCNC(=O)c1ccc([N+](=O)[O-])cc1)NC1CCCCCC1`, the values for the IC50 on Fatty acid synthase [2] and at Fatty acid synthase [3] were 8.77 µM (active) and 7.06 µM (active), respectively.

As for `Fc1ccc(Cn2nnnc2C(c2cccs2)N2CCCCCC2)cc1` (stereo not drawn), in [1], the IC50 is reported as 7.88 µM (not active).

`COc1ccc([N+](=O)[O-])cc1/C=N/NC(=O)/C(=C\c1cccs1)NC(=O)c1ccccc1`: the IC50 at Fatty acid synthase [2] is 2.62 µM (active); on Fatty acid synthase [3], 1.97 µM (active).

`CCN(CC)c1cc2nonc2c2nonc12`: the IC50 on Fatty acid synthase [2] was 15.9 µM (active); at Fatty acid synthase [3] it was 19.4 µM (active).

Consider `C/C(=N\Nc1ccccn1)c1ccc(S(=O)(=O)NCc2ccco2)cc1`, for which the IC50 on Fatty acid synthase [2] was 13.7 µM (active); on Fatty acid synthase [3], 10.3 µM (active).

As for `COc1ccc(OC)c(NC(=O)COC(=O)CSc2ccc(Cl)cc2)c1`, in [1], the IC50 was 15.5 µM (not active).

On to `COc1ccc(CN(C)Cc2nc3scc(-c4ccccc4)c3c(=O)[nH]2)cc1OC`, for which the EC50 in test [7] was > 53 µM (inactive). The IC50 in test [8] is > 47.1 µM (inactive).

Turning to `Cn1nc(C(=O)OCC(=O)N2CCc3ccccc32)c2ccccc2c1=O`, in [1], the IC50 is > 50 µM (not active).

Turning to `O=C(Cn1cc([N+](=O)[O-])ccc1=O)NCc1ccc(Cl)cc1Cl`, the IC50 at Fatty acid synthase [2] is 15.8 µM (active); at Fatty acid synthase [3] it was 20.4 µM (inactive).

Regarding `O=C(/C=C/c1ccc(O)c(O)c1)O[C@@H]1C[C@](O)(C(=O)O)C[C@@H](O)[C@H]1O`, at Large T antigen, the IC50 is 2.86 µM (active).

For `COc1ccc2c(c1)c(CC(=O)Nc1cc(C)ccc1C)c(C)n2C(=O)c1ccc(Cl)cc1`, the results for the EC50 in [7], in test [10] and in test [12] were > 53 µM (inactive), > 60 µM (not active) and 0.938 µM (active), respectively. Also, the half-maximal activity concentration (AC50) in test [9] is 13.1 µM (active); in test [11], 5.69 µM (active).
